Patent US20140243403A1, “TREATING COLORECTAL, PANCREATIC, AND LUNG CANCER” (The General Hospital Corporation, priority 2011, published 2014)

What was measured:
Format in all cases: cell-based, human
[1] = test system: C170 cells; assay: Cellular proliferation and viability, CRC cell line panel; details: KRAS G13D (KRAS-dependent), BRAF WT, CTNNB1 WT, 3 days post-treatment
Description: (§1) (A) IC50 values (μM) for effects on cellular proliferation and viability with the TAK1 kinase inhibitor 5z-7-oxozeaenol in a panel of colon cancer cell lines that have been genotyped as KRAS mutant (KRAS-independent—circles or KRAS-dependent—squares), BRAF mutant (triangles) or wild-type for both KRAS and BRAF (OTHER—diamonds). Effects on growth were measured 3 days post-treatment. Data are represented as the mean of 3 independent experiments and error bars indicate the median±interquartile range. *denotes p<0.00001; n.s.—not significant.
(§2) To further validate TAK1 as a candidate therapeutic target in this context, a potent and selective TAK1 kinase inhibitor, 5Z-7-oxozeaenol (Rawlins et al., 1999), was used. Sensitivity to 5Z-7-oxozeaenol was tested in a panel of 47 colon cancer cell lines with various genotypes (FIGS. 3A and 9A). KRAS and BRAF genotypes were either procured from the Sanger Institute's Catalog of Somatic Mutations (COSMIC) or determined by targeted resequencing (Table 2). KRAS mutation status was determined as described above; the same methods were used to determine the mutation states of BRAF. BRAF exon15 was sequenced with TCATAATGCTTGCTCTGATAGGA (forward; SEQ ID NO:3) and GGCCAAAAATTTAATCAGTGG (reverse; SEQ ID NO:4).

[2] = test system: CCK-81 cells; assay: as above; details: KRAS WT, BRAF WT, 3 days post-treatment
Description: as §1, §2

[3] = test system: CL-11 cells; assay: as above; details: KRAS V14I (KRAS-dependent), BRAF WT, CTNNB1 WT, 3 days post-treatment
Description: as §1, §2

[4] = test system: CL-34 cells; assay: as above; details: KRAS WT, BRAF V600E, 3 days post-treatment
Description: as §1, §2

[5] = test system: COLO-206F cells; assay: as above; details: KRAS WT, BRAF V600E, 3 days post-treatment
Description: as §1, §2

[6] = test system: CoCM-1 cells; assay: as above; details: KRAS WT, BRAF WT, APC WT, CTNNB1 WT, 3 days post-treatment
Description: as §1, §2

[7] = test system: DLD-1 cells; assay: as above; details: KRAS G13D, BRAF WT, APC del, CTNNB1 WT, 3 days post-treatment
Description: as §1, §2

[8] = test system: HCC56 cells; assay: as above; details: KRAS G12V, BRAF WT, 3 days post-treatment
Description: as §1, §2

[9] = test system: HCT-116 cells; assay: as above; details: KRAS G13D, BRAF WT, APC WT, CTNNB1 S45del, 3 days post-treatment
Description: as §1, §2

[10] = test system: HRT-18 cells; assay: as above; details: KRAS G13D, BRAF WT, APC del, CTNNB1 WT, 3 days post-treatment
Description: as §1, §2

[11] = test system: HT115 cells; assay: as above; details: KRAS WT, BRAF WT, APC WT, CTNNB1 WT, 3 days post-treatment
Description: as §1, §2

[12] = test system: HT29 cells; assay: as above; details: KRAS WT, BRAF V600E, APC del, CTNNB1 WT, 3 days post-treatment
Description: as §1, §2

[13] = test system: Hs 1.Int cells; assay: as above; details: KRAS WT, BRAF WT, 3 days post-treatment
Description: as §1, §2

[14] = test system: Hs 257.T cells; assay: as above; details: KRAS G13D, BRAF WT, 3 days post-treatment
Description: as §1, §2

[15] = test system: LS-174T cells; assay: as above; details: KRAS G12D, BRAF WT, APC WT, CTNNB1 S45A, 3 days post-treatment
Description: as §1, §2

[16] = test system: LS-180 cells; assay: as above; details: KRAS G12D, BRAF WT, APC WT, CTNNB1 S45A, 3 days post-treatment
Description: as §1, §2

[17] = test system: OUMS-23 cells; assay: as above; details: KRAS WT, BRAF WT, 3 days post-treatment
Description: as §1, §2

[18] = test system: RKO cells; assay: as above; details: KRAS WT, BRAF V600E, APC del, CTNNB1 WT, 3 days post-treatment
Description: as §1, §2

[19] = test system: SW1417 cells; assay: as above; details: KRAS WT, BRAF V600E, APC del, CTNNB1 WT, 3 days post-treatment
Description: as §1, §2

[20] = test system: SW948 cells; assay: as above; details: KRAS Q61L, BRAF WT, APC del, CTNNB1 WT, 3 days post-treatment
Description: as §1, §2

[21] = test system: HT29 vector control cells; assay: Sensitivity of HT29 vector control cells
Description: (E) Introduction of a V5-tagged constitutively activated (CA) mutant of the BMP receptor, BMPR1A (Q233D) or control vector in HT29 cells and effects on 5Z-7-oxozeaenol sensitivity in terms of IC50 values.
To determine whether TAK1-independent cells could be driven toward TAK1 dependency by enhanced KRAS/Wnt signaling, a series of reconstitution experiments was performed. HT29, SW620 or SKCO1 cells were infected with recombinant lentiviruses encoding either BMPR1A-CA and CTNNB1-CA or vector control (containing the ccDB gene). For BMPR1A-CA stable expression, cells were selected in 5 μg/mlBlasticidin for 7 days and pooled clones were established. Stable expression was verified using the V5 epitope tag on the BMPR1A transgene product. For CTNNB1-CA, the pWPI recombinant lentiviruses encode GFP driven by IRES. Thus, stable cell clones were obtaining by FACS live cell sorting to obtain the top 10% of GFP expressing cells. The SW620-CTNNB1-CA stable cell clones were passaged 1:5 every 2 days and assayed for KRAS dependency after the fifth passage.
To further define the role of BMP signaling in TAK1 dependency, a constitutively-activated (CA) variant (Q233D) of BMPR1A (Zou et al., 1997) was ectopically expressed in HT29 cells. […] This was accompanied by dose-dependent decreases in Axin 2 and phosphorylated Smad2 levels. […]

COc1cc(O)c2c(c1)/C=C/C[C@H](O)[C@H](O)C(=O)/C=C\C[C@H](C)OC2=O [5Z-7-oxozeaenol]
IC50 [1]: 1070 nM | IC50 [2]: 412 nM | IC50 [3]: 1160 nM | IC50 [4]: 489 nM | IC50 [5]: 509 nM | IC50 [6]: 926 nM | IC50 [7]: 8230 nM | IC50 [8]: 2340 nM | IC50 [9]: 2380 nM | IC50 [10]: 60000 nM | IC50 [11]: 1330 nM | IC50 [12]: 7880 nM | IC50 [13]: 5640 nM | IC50 [14]: 3200 nM | IC50 [15]: 6230 nM | IC50 [16]: 6740 nM | IC50 [17]: 48400 nM | IC50 [18]: 1100 nM | IC50 [19]: 1240 nM | IC50 [20]: 2320 nM | IC50 [21]: 7700 nM
